In US12239125B2, “Compositions for organ preservation” (SigmaDrugs Kutató Korlátolt Felelösségü Társaság, priority 2016, dated 2025):
Structures can show the parent of a compound that is named as a salt.

Tests used:
[1] = system: isolated kidney; experiment: Rat model of kidney cold ischemia (cold perfusion and storage of isolated kidney); settings: for mRNA levels of BAX / mRNA levels of Bcl-2: stored kidneys; for mRNA levels of BAX: difference not statistically significant; for reducing, delaying or preventing functional and/or structural damage of a stored organ or tissue (comparison of the three agonists): fluvoxamine, SA-4503 and PRE-84 compared
Procedure: Male Wistar rats were anesthetized with isoflurane (3% vol/vol) mixed with synthetic air (1 L/min) before surgery and placed on a temperature-controlled table to maintain core body temperature. Kidneys (n=6/group) were washed through the renal arteries with 5 ml cold solution, then removed from the animal and placed into a container filled with the same solution for either 2 or 3 hours. […] 3h CP); (viii) Custodiol containing 0.003 mg/mL FLU, 3 hours of cold perfusion (Cust. […] After cold ischemia kidneys were immediately snap-frozen in liquid nitrogen and stored at −80° C. or fixed in buffered 8% formalin for further processing.
Kidneys were fixed in 8% formalin, embedded into paraffin and 5 μm sections were stained with periodic acid-Schiff (PAS) to assess tubular injury. Images were taken with Panoramic Viewer (3[…] Ltd., Budapest, Hungary). Tubular luminal areas were measured in three fields of magnification ×200 per rat. The analysis was performed in a double-blinded fashion with computer-assisted morphometry using Adobe Photoshop CS6 (Adobe Systems Corporation, San José, Calif., USA) and Image J (National Institute of Health, Bethesda, MD, USA) softwares on a Zeiss Axiolmager A1 light-microscope (Carl Zeiss A G, Jena, Germany).
Total RNA was isolated from kidneys with GeneAid Total RNA Mini Kit (Geneaid Biotech Ltd., New Taipei City, Taiwan). 500 ng RNA was reverse-transcribed using Maxima First Strand cDNA Synthesis Kit for RT-qPCR (Thermo Scientific, Waltham, MA, USA) to generate first-strand cDNA. mRNA expressions of Ngal (Lcn2), Kim1, Mcp1, IL-1α (Il1α), IL-6 (Il6), IL-10 (Il10), TNF-α (Tnf), HO-1 (Hmox1), Bax, Bcl-2 (Bcl2), 18S ribosomal RNA (Rn18s) and β-actin (Actb) were determined with real-time RT-PCR using Light Cycler 480 SYBR Green 1 Master enzyme mix on a Light Cycler system (Roche Diagnostics, Mannheim, Germany). The reaction mix contained 10 pmol/μl of each PCR primer (Table 1; Integrated DNA Technologies Inc., Coralville, IA, USA), 10 μl of Light Cycler 480 SYBR Green 1 Master enzyme mix and 1 μl of cDNA sample. The conditions of the PCRs were as follows: 1 cycle at 95° C. for 5 minutes, followed by 70 cycles under the appropriate PCR conditions. Quantification was performed with the second-derivative method by monitoring the cycle number at which the fluorescent sign could be distinguished from the background. Results were analyzed with Light Cycler 480 software version 1.5.0.39 (Roche Diagnostics, Mannheim, Germany). The mRNA expression of each gene was determined by comparison to 18S ribosomal RNA as housekeeping gene from the same sample.
All reagents for Western blotting were purchased from Bio-Rad Laboratories, Hercules, CA, USA unless stated otherwise. Tissue samples were lysed in buffer containing leupeptin, aprotinin, Triton X-100, Tris-HCl, Ethylene glycol-bis (2-aminoethylether),N,N,N′,N′-tetraacetic-acid, NaF, Phenylmethylsulphonylfluoride and Na-orthovanadate (each substance were purchased from Sigma-Aldrich Co., St. Louis, MO, USA). Protein concentrations were determined using Bradford assay. […] Pre-stained protein mixture was used as marker of molecular mass. The separated proteins were transferred into nitrocellulose membranes. Non-specific binding sites were blocked in 5% non-fat dry milk containing blot solution. Membranes were incubated with monoclonal antibody specific to rat cleaved caspase-3 (Asp175) (Cell Signaling Technology, Danvers, MA, USA) diluted to 1:1000. Blots were washed and incubated (1 hour, room temperature) with peroxidase-conjugated goat anti-rabbit IgG secondary antibody (Cell Signaling Technology, Danvers, MA, USA) diluted to 1:4000. […] Bands were analyzed with Quantity One software version 4.6.9. Protein abundance was represented as Integrated Optical Density (IOD)/Ponceau S compared to controls.
Data were analyzed using GraphPad Prism software (GraphPad Software Inc., La Jolla, CA, USA).

[2] = biological target: PCP receptors; settings: cited from earlier work
[3] = system: autotransplanted kidney; experiment: Rat model of kidney isograft autotransplantation (ATx) after cold storage in preservation solution; type: in vivo; settings: for Kidney function / serum AST levels / serum creatinine levels: vs preservation solution without S1R agonist; for NGAL levels: compared to Custodiol; for Tubular lumen areas (tubular dilatation): vs standard preservation solution, PAS-stained sections
Procedure: The institutional committee on animal welfare approved all experiments. Experiments were performed on Male Wistar rats weighing 205±15 g (Toxi-Coop Toxicological Research Center, Dunakeszi, Hungary). Animals were housed in a temperature-controlled (22±1° C.) room with alternating light and dark cycles and had free access to standard rat chow and water. Male Wistar rats (n=8/group) were anesthetized with isoflurane (3% vol/vol) mixed with synthetic air (1 L/min) before surgery and placed on a temperature-controlled table to maintain core body temperature. Left kidneys were perfused with cold Custodiol perfusion solution (Na^+: 15 mmol/L; K^+: 9 mmol/L; Mg^2+: 4 mmol/L; Ca^2+: 0.015 mmol/L; histidine: 198 mmol/L; tryptophan: 2 mmol/L; ketoglutarate: 1 mmol/L; mannitol: 30 mmol/L) (Franz Kohler Chemie GMBH, Bensheim, Germany), then removed from the animal: kidneys were placed into a container for 2 hours filled with either (i) cold Custodiol perfusion solution (ATx) or (ii) cold Custodiol perfusion solution containing 0.003 mg/mL FLU (ATx FLU) or (iii) cold Custodiol perfusion solution containing 0.003 mg/mL SA4503 (ATx SA). After 2 hours kidneys were placed back into the rats and end-to-end anastomoses of the renal artery, vein and ureter were performed. […] Total warm ischemia time was 35 min in all animals. Sham operated animals served as controls. After 24 hours of reperfusion, blood samples were collected from the abdominal aorta, the remnant kidneys were harvested, instantly snap-frozen in liquid nitrogen, and stored at -80° C. or fixed in buffered 8% formalin for further processing. The experimental design of the autotransplantation is shown in FIG. 9 Metabolic (glucose, fructosamine, total and HDL-cholesterol, triglycerides) and renal functional parameters from rat sera (sodium, potassium, creatinine, blood urea nitrogen (BUN), aspartate transaminase (AST)) were determined with commercially available kits on a Hitachi 912 photometric chemistry analyzer. Kidneys were fixed in 8% formalin, embedded into paraffin and 5 μm sections were stained with periodic acid-Schiff (PAS) to assess tubular injury. Images were taken with Panoramic Viewer (3[…] Ltd., Budapest, Hungary). Tubular luminal areas were measured in three fields of magnification ×200 per rat. The analysis was performed in a double-blinded fashion with computer-assisted morphometry using Adobe Photoshop CS6 (Adobe Systems Corporation, San José, Calif., USA) and Image J (National Institute of Health, Bethesda, MD, USA) softwares on a Zeiss Axiolmager A1 light-microscope (Carl Zeiss A G, Jena, Germany). Formalin-fixed kidney samples were embedded into paraffin. 5 μm thick sections were mounted on Superfrost slides (Thermo Shandon, Runcorn, UK) and were manually deparaffinized. Assay was performed using the Apoptag® Peroxidase In situ Apoptosis Detection Kit (Millipore, Billerica, MA, USA). Briefly, samples were pretreated with Proteinase K for 15 min. Following repeated washing steps endogenous peroxidase activity was blocked by 3% H2O2 in methanol for 5 min at room temperature. Next, slides were incubated in reaction buffer containing 30% TdT enzyme for 1 hour at room temperature after which Stop buffer was added. Slides were incubated with anti-Dioxigenin Conjugate for 30 min at room temperature. Slides were developed using DAB peroxidase substrate. The areas of TUNEL-positive apoptotic nuclei were measured in three fields of magnification ×200 per rat. The analysis was performed using Adobe Photoshop CS6 (Adobe Systems Corporation, San José, Calif., USA) and Image J (National Institute of Health, Bethesda, MD, USA) softwares on a Zeiss Axiolmager A1 light-microscope (Carl Zeiss A G, Jena, Germany). Formalin-fixed kidney samples were embedded into paraffin. One to two micron thick sections were mounted on Superfrost slides (Thermo Shandon, Runcorn, UK) and were manually deparaffinized. Endogenous peroxidase activity was blocked by 3% H2O2 in methanol for 20 min at room temperature. […]

[4] = system: mitochondrial functions (liver); settings: administered to rats or used in the preservation liquid of isolated liver; cited from earlier work
[5] = isolated kidneys stored in Custodiol, vs vehicle
[6] = 2 h cold storage in Custodiol with 0.003 mg/mL compound, ATx, 24 hours of reperfusion
[7] = stored and subsequently transplanted kidney
[8] = transplantation after storage, vs vehicle

CCCN(CCC)CCc1ccc(OC)c(OCCc2ccccc2)c1 [NE100, N-dipropyl-2-[4-methoxy-3-(2-phenylethoxy)-phenyl]-ethylamine monohydrochloride]
KIM-1 levels: effect of adding S1R antagonist to fluvoxamine [1]: diminished the protective effect of fluvoxamine

O=C(OCCN1CCOCC1)C1(c2ccccc2)CCCCC1 [PRE-084, 2-morpholin-4-dylethyl 1-phenylcyclohexane-1-carboxylate]
IC50 [2]: > 100 µM | KIM-1 levels [1, 5]: inhibited the increase of KIM-1 | mRNA levels of BAX [1]: decreased

COCCCC/C(=N\OCCN)c1ccc(C(F)(F)F)cc1 [fluvoxamine, fluvoxamine maleate]
Kidney function [3, 6]: substantially improved | serum AST levels [3, 6]: lower | serum creatinine levels [3, 6]: lower | Levels of MCP-1 ([3]; autotransplanted kidneys, vs vehicle): significantly less elevated | mRNA levels of inflammatory cytokines (IL10, IL-1α, TNFα) [3, 7]: decreased | protein levels of inflammatory cytokines (IL10, IL-1α, TNFα) [3, 7]: decreased | NGAL levels ([3]; transplantation after storage): significantly decreased | histological damage on PAS-stained kidney sections ([3]; transplantation after storage, vs conventional preservation fluid (vehicle)): milder histological damage | Tubular lumen areas (tubular dilatation) ([3]; transplantation after storage): significantly smaller | Tubular lumen areas (tubular dilatation) ([3]; transplantation after storage, listed as FLU): less dilated | BAX expression (mRNA) [3, 8]: significant decrease | KIM-1 expression levels [3, 8]: significantly lower expression | increase of HO-1 expression [3, 8]: prevented | mRNA levels of Bcl-2 [3, 8]: significant increase | apoptotic cells in TUNEL assay ([3]; transplantation after storage, vs vehicle treated kidneys): significantly less apoptotic cells | structural damage after prolonged cold ischemia ([1]; 3, 8 or 24 hours of cold ischemia with Flu vs 2 hours ischemia without Flu): less pronounced | increase of tubular damage (tubular lumen areas) from 2 to 3 hours of cold storage ([1]; Custodiol, 2 and 3 hours of cold storage): inhibited this increase of damage | less tissue damage by histologic assay ([1]; after 1.5 fold longer or even 10 fold longer preservation time than organs in same solution without fluvoxamine): 25% | MCP-1 levels ([1]; after storage, vs conventional Custodiol): less elevated | Tubular lumen dilatation ([1]; cold storage without reperfusion, compound 0.003 mg/mL in preservation solution vs solution alone): less dilated | reducing, delaying or preventing functional and/or structural damage of a stored organ or tissue (comparison of the three agonists) [1]: surprisingly more effective than SA 4503 | reducing, delaying or preventing functional and/or structural damage of a stored organ or tissue (comparison of the three agonists) ([1]; listed as Fluvoxamine): most successful of the three compounds | KIM-1 levels [1, 5]: decreased dramatically | kidney structure on PAS-stained sections ([1]; perfused with FLU, harvested after 2 hours of cold ischemia): better preserved | KIM-1 levels ([1]; saline): milder, though a tendency of decrease is noticed | NGAL mRNA expression ([1]; saline): Efficacy of fluvoxamine in saline was also demonstrated | mRNA levels of Bcl-2 [1]: markedly increased | mRNA levels of BAX [1]: decreased

COc1ccc(CN2CCN(Cc3ccccc3)CC2)c(O)c1OC [BHDP, N-benzyl-N′-(2-hydroxy-3,4-dimethoxybenzyl)-piperazine]
mitochondrial functions [4]: protected mitochondrial functions

COc1ccc(CCN2CCN(CCCc3ccccc3)CC2)cc1OC [SA 4503, 1-[2-(3,4-Dimethoxyphenyl)ethyl]-4-(3-phenylpropyl)piperazine]
BUN (Blood urea nitrogen) levels [3, 6]: significantly decreased | Kidney function [3, 6]: substantially improved | serum AST levels [3, 6]: lower | serum creatinine levels [3, 6]: lower | NGAL levels ([3]; transplantation after storage): significantly decreased | Tubular lumen areas (tubular dilatation) ([3]; transplantation after storage): significantly smaller | KIM-1 expression levels [3, 8]: significantly lower expression | KIM-1 levels [1, 5]: inhibited the increase of KIM-1 | mRNA levels of Bcl-2 [1]: no such effect | mRNA levels of BAX [1]: decreased
